Marks after values point to notes of the source that are not given here. Peptide text beside a SMILES is read from it.
Assays:
[1] = Iron-binding competition assay with labeled IM3AVD (x2E d); settings: labeled IM3AVD plus 10x unlabeled peptide; no competing peptide = 100
Procedure: (§1) Experiments were conducted by the procedure described above. Ferric iron-charged NTA-coated 96-well plates were used as described. 1 ug/well immodulator peptide complexed to Alexa-488-labeled streptavidin in PBS buffer was added (60 min at room temperature). The plate was washed and counted in a standard fluorometer (excitation/emission: 485/525 nm). The results (fluorescence) show improved iron-binding by the three peptides extended C-terminally by the AVD, (dA)VD, and FVS tripeptides. **p<0.01 vs IM3 control IM3: 200±29; IM4: 45±37**; IM5: 130±77; IM3AVD: 434±29**; IM3dAVD: 418±28**; IM3FVS: 371±33** • (c) Competition assay. The same procedure was used as the preceding experiment, except that 375 ng/well labeled IM3 peptide was used, plus 10× of the indicated unlabeled peptide. ‘No competing peptide’ control value was set to 100. *p<0.05 vs “no peptide” control Competing Peptide/Fluorescence • None: 100±38; IM4: 125±26; IM3: 63±27*; IM5: 40±14*; IM3AVD: 10±28* • (d) Competition assay. The same procedure was used as the preceding experiment, except that labeled IM3AVD peptide was used. **p<0.01 vs “no competing peptide” control • None: 100±9; IM4: 144±44; IM3: 35±16**; IM5: 30±19**; IM3AVD: 9±19** • (e) The same procedure was used as the preceding experiment, except that each peptide was labeled with Alexa-488-labeled streptavidin in PBS buffer and used separately. Binding to IM3 was set to =100. *p<0.05, **p<0.01 vs IM3 control. (Labeled Peptide/Fluorescence) IM1: 1.8±0.4**; IM2: 3.0±1.8**; IM3: 100.0±16.8; IM4: 7.2±1.7*; IM5: 86.7±6.4; IM6: 85.9±14.9; IM3AVD:137.7±11.8*; IM3dAVD:147.4±22.9*; IM3FVS: 101.5±10.5.

[2] = FITC-PI(4,5)P2 binding to plate-bound peptide with calcium (x9A)
Procedure: Immodulator peptides IM1, IM3 and IM5 (400 ng/well) in PBS were bound to streptavidin-coated 96-well plates at room temperature for 60 minutes, in the presence or absence of 500 uM calcium chloride. Each well also received 200 ng cold PPI plus 10 ng FITC-labeled PI(4,5)P2 or PI(4)P1. The tables below show the relative fluorescence (with/without calcium background) expressed as a percentage of the highest binder, FITC-PI(4,5)P2+cold PI(3,5)P2, which was 2,496 fluorescence units. Background binding without calcium was, in all cases, 200-300 fluorescence units.

[3] = Alexa488-SA-labelled IM1-IM6 binding to metal-charged NTA-coated plate (x2B d); settings: no peptide background = 1.0
Procedure: NTA-metal-affinity fluorescence assay was performed using 96-well NTA-metal-coated plates readily available from commercial sources such as Qiagen (Germantown, MD). NTA was charged with ferrous or ferric iron, zinc, copper, calcium, vanadium, ruthenium, cobalt, titanium, manganese or other metals. 400 ng of FITC-labeled immodulator peptide (or biotinylated immodulator peptide complexed to Alexa-488-labeled streptavidin) in PBS buffer was added per plate. After incubation at room temperature for 60 minutes, excess peptide was washed off and peptide was detected by measuring fluorescence (excitation 490 nm, emmission 525 nm) in a fluorometer. • (a) Using FITC-labeled IM3 peptide (1 ug/well) in the fluorescent binding assay: • EDTA-treated control: 2,251±1,186 • Ferrous iron: 170,441±11,264 (p<0.001)* • Copper: 13,644±5566 (p<0.05)* • Calcium: 48,822±11,990 (p<0.01)* • *p values are relative to EDTA-treated control • (b) Competition binding assay to ferrous iron, calcium, copper and zinc-charged NTA-coated plates using FITC-labeled IM3 peptide (0.5 uM) and 8× (4 uM) unlabelled competitor peptides IM3N1, IM3N2 (*all comparisons to PBS control are p<0.01); # fluorescent value of binding to […] was set at 100.
Ferrous iron # (100±2.6*); Control (no metal): 6.4±3.1; Ferric iron: 94.1±6.6*; Calcium: 47.6±3.7*; Vanadium: 53.9±5.5*; Manganese: 54.4±11.2*; Cobalt: 25.4±2.3*; Copper: 58.4±6.4*; Zinc: 71.4±8.3*; Ruthenium: 67.8±8.3*; (d) Alexa488-SA-labelled immodulator peptide IM1, IM2, IM3, IM4, IM5, IM6 (400 ng/well) were bound to NTA-coated plate charged with the indicated metals: # background (no peptide) control set to 1.0;*p<0.05, **p<0.01 vs “no peptide”

[4] = Iron-binding competition assay with labeled IM3 (x2E c); settings: 375 ng/well labeled IM3 plus 10x unlabeled peptide; no competing peptide = 100
Procedure: as §1

[5] = tested on: A375 cells; assay: A375 cell viability, CellTiterGlo (x10A); assay type: cell-based; settings: 72 hours
Method in brief: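 Peptides at 2 uM were added to A375 cells (2,000/well, DMEM with 10% FBS) 24 h after seeding, in quadruplicate. Following 72 h at 37 °C, CellTiterGlo luminescence was read after 10 min, reported as percent survival.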

Q: Which “fluorescence of labeled IM3AVD with competing peptide” value [1] does the source give for N=C(N)NCCC[C@H](NC(=O)CNC(=O)[C@H](CCCCN)NC(=O)[C@H](CO)NC(=O)[C@@H]1CCCN1C(=O)[C@H](CCCNC(=N)N)NC(=O)[C@H](CS)NC(=O)[C@H](CCC(N)=O)NC(=O)[C@H](CCCCN)NC(=O)[C@H](CCCCN)NC(=O)[C@H](CCCCN)NC(=O)[C@H](Cc1ccc(O)cc1)NC(=O)[C@H](Cc1ccccc1)NC(=O)CNC(=O)[C@H](CCCCN)NC(=O)[C@@H](N)CCCCN)C(=O)N[C@@H](CCCCN)C(=O)N[C@@H](CCCNC(=N)N)C(=O)NCC(=O)N[C@@H](Cc1ccccc1)C(=O)N[C@@H](CS)C(=O)N[C@@H](Cc1c[nH]c2ccccc12)C(=O)O [IM3] (H-KKGFYKKKQCRPSKGRKRGFCW-OH; N-terminus and C-terminus assumed) here?
A: 35±16

Q: And the “fluorescence of the highest binder” value ([2]; FITC-PI(4,5)P2 + cold PI(3,5)P2, calcium)?
A: 2,496 fluorescence units

Q: And the “relative fluorescence, FITC-PI(4,5)P2 bound” value ([2]; cold PPI: 3,4,5-P3, calcium)?
A: 3.2 percentage of the highest binder

Q: And the “relative fluorescence, FITC-PI(4,5)P2 bound” value ([2]; cold PPI: 3,4-P2, calcium)?
A: 51.5 percentage of the highest binder

Q: What about the “relative fluorescence, FITC-PI(4,5)P2 bound” value ([2]; cold PPI: 3,5-P2, calcium) of the same molecule?
A: 100.0 percentage of the highest binder

Q: What about the “relative fluorescence, FITC-PI(4,5)P2 bound” value ([2]; cold PPI: 3-P1, calcium) of the same molecule?
A: 1.7 percentage of the highest binder

Q: And the “relative fluorescence, FITC-PI(4,5)P2 bound” value ([2]; cold PPI: 4,5-P2, calcium)?
A: 63.7 percentage of the highest binder

Q: What about the “relative fluorescence, FITC-PI(4,5)P2 bound” value ([2]; cold PPI: 4-P1, calcium) of the same molecule?
A: 6.3 percentage of the highest binder

Q: What about the “relative fluorescence, FITC-PI(4,5)P2 bound” value ([2]; cold PPI: 5-P1, calcium) of the same molecule?
A: 10.4 percentage of the highest binder

Q: What about the “relative fluorescence, FITC-PI(4,5)P2 bound” value ([2]; cold PPI: None, 500 uM calcium chloride) of the same molecule?
A: 2.2 percentage of the highest binder

Q: What about the fluorescence ([3]; Calcium) of the same molecule?
A: 28.7 ± 0.7**

Q: What about the fluorescence ([3]; Copper) of the same molecule?
A: 6.2 ± 0.2**

Q: What about the fluorescence ([3]; Ferrous iron, 400 ng/well) of the same molecule?
A: 24.7 ± 1.6**

Q: What about the fluorescence ([3]; Zinc) of the same molecule?
A: 32.0 ± 0.7**

Q: What about the “fluorescence of labeled IM3 with competing peptide” value [4] of the same molecule?
A: 63±27

Q: And the “percent survival of A375 cells” value ([5]; peptide 2 uM + Kin1400 4 uM (RIG-I agonist))?
A: 62.2** percent

Q: What about the “percent survival of A375 cells” value ([5]; peptide 2 uM, Buffer) of the same molecule?
A: 100.3%

— patent US12102685B2, “Immodulator peptides covalently modified with small molecules” (priority 2020, dated 2024)
